Molecular target: T1, Tyrosine-protein phosphatase non-receptor type 11 (Homo sapiens, UniProt Q06124)
T1 sequence (Q06124 whole entry): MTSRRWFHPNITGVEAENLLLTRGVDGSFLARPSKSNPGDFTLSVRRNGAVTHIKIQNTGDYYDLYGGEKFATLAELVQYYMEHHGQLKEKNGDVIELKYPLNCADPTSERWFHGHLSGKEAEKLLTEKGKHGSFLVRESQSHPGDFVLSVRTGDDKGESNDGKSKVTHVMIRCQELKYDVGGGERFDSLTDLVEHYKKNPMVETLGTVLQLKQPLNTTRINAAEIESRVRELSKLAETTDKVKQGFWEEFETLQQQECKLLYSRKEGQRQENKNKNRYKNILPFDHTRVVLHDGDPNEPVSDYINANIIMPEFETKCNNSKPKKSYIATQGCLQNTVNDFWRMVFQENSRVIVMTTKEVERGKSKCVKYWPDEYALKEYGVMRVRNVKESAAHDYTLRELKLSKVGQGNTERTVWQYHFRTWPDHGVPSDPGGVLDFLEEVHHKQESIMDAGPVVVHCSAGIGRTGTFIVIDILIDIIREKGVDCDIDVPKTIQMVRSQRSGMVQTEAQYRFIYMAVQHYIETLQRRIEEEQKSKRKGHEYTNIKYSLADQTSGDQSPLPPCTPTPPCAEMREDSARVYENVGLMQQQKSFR
Test: Assay of Full-Length SHP2 Phosphatase Activity Assay
Procedure: 1. Reagents and MaterialsHuman full-length SHP2 recombinant protein: BPS Bioscience, Cat #79018;SHP2 substrate DiFMUP (1 mM): BPS Bioscience, Cat #79769;SHP2 activating peptide (100 μM): BPS Bioscience, Cat #79319-2;DTT: Merck, Cat #DTT-RO;384-well plate: Corning, Cat #3575;96-well plate: Thermo Fisher Scientific, Cat #249952;Instrument: EnVision 2104, PerkinElmer.2. Preparation of Reaction SolutionsThe test compound was dissolved in DMSO and diluted with DMSO to 100.0 μM, and the compound was further 3-fold diluted with DMSO to: 100.00, 33.33, 11.11, 3.70, 1.23, 0.41, 0.14 and 0.05 μM.

IC50	Compound
13 nM	C#Cc1ccc2c(c1)[C@@H](N)C1(CCN(c3cc(=O)n(-c4cc(OC)ccc4Cl)c(C)n3)CC1)C2 [US20240140931, Compound 44]
> 100 nM	C#Cc1ccc2c(c1)[C@@H](N)C1(CCN(c3cc(=O)n(-c4cccc(C#N)c4Cl)c(C)n3)CC1)C2 [US20240140931, Compound 267]
1 nM	C#Cc1ccc2c(c1)[C@@H](N)C1(CCN(c3cc(=O)n(-c4cccc(C#N)c4Cl)c(C)n3)CC1)C2 [US20240140931, Compound 268]

More lines, now with the values behind:

Compound	IC50
C#Cc1ccc2c(c1)[C@@H](N)C1(CCN(c3cc(=O)n(-c4ccc(F)c(F)c4Cl)c(C)n3)CC1)C2 (atropisomer, axis not shown) [US20240140931, Compound 113]	5 nM
Cc1nc(N2CCC3(CC2)Cc2ccc(C#CCN(C)C)cc2[C@H]3N)cc(=O)n1-c1cccc(Cl)c1Cl [US20240140931, Compound 52]	< 0.5 nM
Cc1nc(N2CCC3(CC2)Cc2ccc(SC4COC4)cc2[C@H]3N)cc(=O)n1-c1cccc(Cl)c1Cl [US20240140931, Compound 81]	2 nM
